Values joined by “and” are separate entries in the source; they are usually repeats but may differ in a detail not shown here. Identical values can stand only once. “Also recorded” adds a separate entry of the source.
Columns and labels:
[1] = system: Human peripheral blood neutrophils; experiment: Neutrophil chemotaxis in modified Boyden chambers; format: cell-based; settings: peptide in lower compartment of modified Boyden chamber
Excerpt: Human peripheral blood neutrophils and monocytes, isolated from whole blood using standard techniques may also be used in the chemotaxis assays, in a manner similar to infant foreskin fibroblasts, to measure the chemotactic activity of the peptides towards inflammatory cells. Such cells may also be maintained in supplemented MEM as above, to which 5-10% FCS may be added. When using neutrophils and monocytes, instead of fibroblasts, the polycarbonate filters used in the modified Boyden chambers had pore sizes of 2 and 3 microns, respectively. As above, all assays were carried out in quadruplicate.

[2] = system: infant foreskin fibroblasts; experiment: Fibroblast chemotaxis in modified Boyden chambers (incl. checkerboard and deactivation studies); format: cell-based, human; settings: for fibroblast chemotaxis / migration (in words): peptide in lower compartment of modified Boyden chamber; for Mean Fibroblasts per 20 OIF + SEM: Experiment 1, lower compartment: TGF-β1 50 pg/ml, peptide 368-374 1.4 × 10^-5 M, peptide 364-378 6.7 × 10^-7 M, fibronectin 20 μg/ml; for chemotactic response of fibroblasts to peptide with fibronectin in upper chamber (in words): unrelated chemoattractant fibronectin in the upper chamber
Method: Target cells used in in vitro chemotaxis assays were infant foreskin fibroblasts obtained by establishing monolayer cultures from explants of tissue. Cells were maintained in Eagle's minimum essential medium (MEM) supplemented with non-essential amino acids, antibiotics, 50 ug/ml ascorbic acid, and 9% fetal calf serum (FCS). Cells were passaged by trypsinization every 3-5 days.
Infant foreskin fibroblasts were harvested from monolayer culture by gentle trypsinization, washed twice in serum-free Eagles's MEM and adjusted to a final concentration of 250,000 cells/ml. The cell suspension (0.4 ml) was added to the upper compartments of blind well modified Boyden chemotaxis chambers. The peptides of the invention being assayed for chemotactic activity were solubilized in glycylglycine (0.015M) buffered NaCl (0.14M), pH 7.2, hereinafter referred to as GGBS, and diluted 50% with serum-free MEM. Test substances were added to the lower compartment of the chemotaxis chambers. Gelatin-treated polycarbonate filters (8 micron pore size) were interposed between the lowest compartment and the upper cell compartment. Loaded chambers were incubated at 37° C. in a humidified atmosphere containing 5% CO2 for 150 minutes. After incubation, the chambers were disassembled, the filters removed, stained with hematoxylin, and mounted on glass cover slips. Fibroblast chemotaxis was quantitated by counting the number of fibroblasts in 20 oil immersion fields (OIF) that migrated and adhered to the lower surface of each filter. Samples were tested in quadruplicate and results are expressed as mean number of fibroblasts per 20 OIF±standard error of the mean (SEM). Chemotaxis neutralization studies were performed by adding TGF-β1 or fibronectin to the upper cell compartment and testing for effects on fibroblast migration to the TGF-β peptides.
Zigmond-Hirsch checkerboard analysis (Zigmond & Hirsch, J. Exptl. Med. 137:387, 1972) was performed to determine whether the 7-mer peptide 368-374 (Val Tyr Tyr Val Gly Arg Lys) induced chemotaxis of fibroblasts, monocytes and neutrophils.
Deactivation studies were utilized to determine whether the peptides of the invention containing the 7-mer peptide amino acid sequence induced chemotaxis via cellular receptors and mechanisms utilized by intact TGF-β.

guinea pig skin = experiment: In vivo fibrosis assay, intradermal injection into guinea pig skin; parameters: species or system Guinea pigs (Hartley strain); settings: for fibrogenic response / fibrosis in guinea pig skin (in words): intradermal injection of peptide in collagen carrier; for Histologic Score (degree of fibrosis), Peptide site: 400 μg peptide in 1.7 mg type I collagen carrier, 100 μl intradermal, 9 days, one value per guinea pig, scale 0 to 4
Method: The ability of the peptides to induce cellular chemotaxis and a fibrogenic response (fibroblast proliferation and collagen synthesis) in vivo may be measured by intradermal injection of the peptides into the skin of guinea pigs. Generally, the in vivo, guinea pig skin studies were carried out according to the following protocol:
8 mg/cc stocks of the peptides according to the present invention in Dulbecco's PBS were sterile filtered using a 0.45μ syringe filter. PBS plus ZYDERM™ collagen (Collagen Corp., Inc.) was used as a control. Peptide stocks were diluted 1:1 with ZYDERM™ collagen (35 mg/ml), resulting in a 4 mg/ml peptide-collagen suspension. Peptide-collagen suspensions were kept on ice at all times and drawn up in 1 cc syringes fitted with 27 or 28 gauge needles.
(§1) Guinea pigs (Hartley strain, female, weanlings) were shaved on the left and right sides of their abdomens. 100 μl of a suspension of peptide-collagen was injected intradermally in one site on each side of each guinea pig. Each site was circled with an indelible ink pen. Pigs were remarked after 3 days. At appropriate times after injection, guinea pigs were sacrificed via CO2 narcosis. Animals were shaved and a depilatory was used to remove remaining stubble. Injection sites were excised using a skin biopsy punch (6 mm). Tissue was placed in vials with 10% neutral buffered formalin. Sections were processed for staining with H+E and Masson's Trichrome.
8 mg/cc stocks of TGF-β1 peptides in Dulbecco's PBS were sterile filtered using a 0.45μ syringe filter. PBS plus ZYDERM™ (Collagen Corp., Inc.) was used as a control. Peptide stocks were diluted 1:1 with ZYDERM™ collagen (35 mg/ml) resulting in a 4 mg/ml peptide-collagen suspension. Peptide-collagen suspensions were kept on ice at all times and drawn up in 1 cc syringes fitted with 27 or 28 gauge needles.
as §1, with “of” for “of a”, “peptide-collagenwas” for “peptide-collagen was”, “straining” for “staining”
In vivo fibrosis assays were performed. Guinea pigs were injected intradermally with 400 μg of either peptide VYYVGRK (SEQ ID NO. 1) or peptide PLPIVYYVGRKPKVE (SEQ ID NO. 6) in a 100 μl volume of saline containing type I bovine collagen carrier 1.7 mg (zyderm, Celtrex Corp. Palo Alto, Calif.). As a control, at a distant site on the same guinea pig, the collagen carrier plus saline was injected intradermally as a control. Nine days later, the animals were sacrificed, and the skin sectioned through the injection sites was processed for histology using Mason-Trichrome to stain collagen fibers. The degree of fibrosis was assessed at 400×magnification to determine degree of replacement of surrounding subcutaneous fat with newly synthesized collagen. FIG. 15 is a Mason-Trichrome, 400×[…] of 9 day post intradermal injection of guinea pig skin with 100 μl, 400 μg peptide PLPIVYYVGRKPKVE ([…]) in collagen carrier (1.7 mg). There is marked (score of 4) replacement of fat cells with newly synthesized collagen in the subcutaneous fatty layer. Fibroblasts are noted scattered throughout what was once subcutaneous fatty layer. FIG. 16 is a Mason-Trichrome 400×magnification of 9 days post intradermal injection of the same guinea pig as in […] at a distant site with saline and collagen carrier as a control. Note minimal (score of 1) replacement of fat cells with newly synthesized collagen. Few fibroblasts are visible in the subcutaneous fatty layer. […]

[3] = Media added to upper compartment
[4] = TGF-β1 (50 pg/ml) added to upper compartment

Substance: 340-391: synthetic peptide corresponding to sequence 340-391 of TGF-β1; positive chemotactic control (VLALYNQHNPGASAAPCCVPQALEPLPIVYYVGRKPKVEQLSNMIVRSCKCS; printed: Val Leu Ala Leu Tyr Asn Gln His Asn Pro Gly Ala Ser Ala Ala Pro Cys Cys Val Pro Gln Ala Leu Glu Pro Leu Pro Ile Val Tyr Tyr Val Gly Arg Lys Pro Lys Val Glu Gln Leu Ser Asn Met Ile Val Arg Ser Cys Lys Cys Ser) [Peptide 340-391]
- neutrophil chemotaxis / migration (in words) [1]: migrated in a dose dependent fashion
- fibroblast chemotaxis / migration (in words) [2]: migrated in a dose dependent fashion
- fibrogenic response / fibrosis in guinea pig skin (in words) (guinea pig skin): induced a fibrinogenic response

Substance: PLPIVYYVGRKPKVE [Peptide 364-378, 15-mer peptide 364-378 of TGF-β1]
- neutrophil chemotaxis / migration (in words) [1]: induced migration of fibroblasts, monocytes and neutrophils in a dose dependent fashion
- Mean Fibroblasts per 20 OIF + SEM [2, 3]: 122 ± 8 Fibroblasts per 20 OIF
- Mean Fibroblasts per 20 OIF + SEM [2, 4]: 37 ± 5 Fibroblasts per 20 OIF
- fibroblast chemotaxis / migration (in words) [2]: induced migration of fibroblasts, monocytes and neutrophils in a dose dependent fashion
- chemotactic response of fibroblasts to peptide with fibronectin in upper chamber (in words) [2]: No such inhibition was seen
- Histologic Score (degree of fibrosis), Peptide site (guinea pig skin): 4 (4 equals 75 to 100% of fat cells replaced with collagen) and 3 (3 equals replacement of 50 to 75% of fat cells with collagen)
- fibrogenic response / fibrosis in guinea pig skin (in words) (guinea pig skin): induced a fibrinogenic response
- fibrogenic response / fibrosis in guinea pig skin (in words) (guinea pig skin; listed as PLPIVYYVGRKPKVE): extensive collagen synthesis

Substance: VYYVGRK [Peptide 368-374, 7-mer corresponding to amino acids 368-374 of TGF-β1]
- neutrophil chemotaxis / migration (in words) [1]: induced migration of fibroblasts, monocytes and neutrophils in a dose dependent fashion
- Mean Fibroblasts per 20 OIF + SEM [2, 3]: 75 ± 2 Fibroblasts per 20 OIF
- Mean Fibroblasts per 20 OIF + SEM [2, 4]: 23 ± 1 Fibroblasts per 20 OIF
- Fibroblasts per 20 OIF (mean ± SEM) ([2]; checkerboard: upper compartment 0, lower compartment 1.4 × 10^-6 M): 38 ± 2 Fibroblasts per 20 OIF
- Fibroblasts per 20 OIF (mean ± SEM) ([2]; checkerboard: upper compartment 0, lower compartment 7.0 × 10^-6 M): 58 ± 5 Fibroblasts per 20 OIF
- Fibroblasts per 20 OIF (mean ± SEM) ([2]; checkerboard: upper compartment 0, lower compartment 7.0 × 10^-7 M): 20 ± 3 Fibroblasts per 20 OIF
- Fibroblasts per 20 OIF (mean ± SEM) ([2]; checkerboard: upper compartment 1.4 × 10^-6 M, lower compartment 0): 9 ± 1 Fibroblasts per 20 OIF
- Fibroblasts per 20 OIF (mean ± SEM) ([2]; checkerboard: upper compartment 1.4 × 10^-6 M, lower compartment 1.4 × 10^-6 M): 9 ± 1 Fibroblasts per 20 OIF
- Fibroblasts per 20 OIF (mean ± SEM) ([2]; checkerboard: upper compartment 1.4 × 10^-6 M, lower compartment 7.0 × 10^-6 M): 24 ± 2 Fibroblasts per 20 OIF
- Fibroblasts per 20 OIF (mean ± SEM) ([2]; checkerboard: upper compartment 1.4 × 10^-6 M, lower compartment 7.0 × 10^-7 M): 10 ± 1 Fibroblasts per 20 OIF
- Fibroblasts per 20 OIF (mean ± SEM) ([2]; checkerboard: upper compartment 7.0 × 10^-6 M, lower compartment 0): 7 ± 1 Fibroblasts per 20 OIF
- Fibroblasts per 20 OIF (mean ± SEM) ([2]; checkerboard: upper compartment 7.0 × 10^-6 M, lower compartment 1.4 × 10^-6 M): 8 ± 1 Fibroblasts per 20 OIF
- Fibroblasts per 20 OIF (mean ± SEM) ([2]; checkerboard: upper compartment 7.0 × 10^-6 M, lower compartment 7.0 × 10^-6 M): 11 ± 1 Fibroblasts per 20 OIF
- Fibroblasts per 20 OIF (mean ± SEM) ([2]; checkerboard: upper compartment 7.0 × 10^-6 M, lower compartment 7.0 × 10^-7 M): 7 ± 1 Fibroblasts per 20 OIF
- Fibroblasts per 20 OIF (mean ± SEM) ([2]; checkerboard: upper compartment 7.0 × 10^-7 M, lower compartment 0): 8 ± 1 Fibroblasts per 20 OIF
- Fibroblasts per 20 OIF (mean ± SEM) ([2]; checkerboard: upper compartment 7.0 × 10^-7 M, lower compartment 1.4 × 10^-6 M): 24 ± 2 Fibroblasts per 20 OIF
- Fibroblasts per 20 OIF (mean ± SEM) ([2]; checkerboard: upper compartment 7.0 × 10^-7 M, lower compartment 7.0 × 10^-6 M): 39 ± 4 Fibroblasts per 20 OIF
- Fibroblasts per 20 OIF (mean ± SEM) ([2]; checkerboard: upper compartment 7.0 × 10^-7 M, lower compartment 7.0 × 10^-7 M): 10 ± 1 Fibroblasts per 20 OIF
- fibroblast chemotaxis / migration (in words) [2]: does stimulate fibroblast chemotaxis and synthesis of collagen and hyaluronic acid; also recorded: induced migration of fibroblasts, monocytes and neutrophils in a dose dependent fashion; also recorded: induced primarily chemotaxis of fibroblasts
- fibroblast chemotaxis / migration (in words) ([2]; listed as VYYVGRKK): induced fibroblast chemotaxis at all of the concentration tested
- chemotactic response of fibroblasts to peptide with fibronectin in upper chamber (in words) [2]: No such inhibition was seen
- Histologic Score (degree of fibrosis), Peptide site (guinea pig skin): 1 (1 equals replacement of 10 to 25% of the fat cells with collagen)
- fibrogenic response / fibrosis in guinea pig skin (in words) (guinea pig skin): did not induce

Substance: YSKVLALYNQHNPGASAAPC (YSKVLALYNQHNPGASAAPC) [Peptide 337-356]
- fibroblast chemotaxis / migration (in words) [2]: has the ability to induce fibroblast chemotaxis
- chemotactic response of fibroblasts to peptide with fibronectin in upper chamber (in words) [2]: No such inhibition was seen
- fibrogenic response / fibrosis in guinea pig skin (in words) (guinea pig skin): induced a fibrinogenic response
